Assay [1] has as its target T1, human CXCR4 (Homo sapiens, UniProt P61073). Briefly: IC50 for inhibition of CXCR4 activation, β-Arrestin recruitment (Example 22). It is filed as cell-based. Set-up: host or cells: C2C12 (mouse myoblast) CXCR4 β-Arrestin PathHunter cell line. On the procedure:
The assay was run with the DiscoverX protocol. β-Arrestin recruitment assays were performed by Eurofins-DiscoverX (Fremont, Calif.) using C2C12 CXCR4 β-Arrestin cell line (co-expressing ProLink tagged human CXCR4 and Enzyme Acceptor tagged β-Arrestin) and PathHunter detection kit. Peptides were initially prepared as 1 mM stock in H2O and tested in ten (10)-step concentration response curves using 3-fold dilution steps with 1 μM as highest concentration; a concentration range of 1 μM-0.05 nM was tested. C2C12 CXCR4 β-Arrestin cells were seed onto 384-well plates in standard medium. […] At the end of the 90 min incubation period, β-Arrestin recruitment in response to various treatments was quantified using a chemiluminescent complementation reporter assay to measure association of tagged human […] (ProLink tag) and tagged β-Arrestin (Enzyme Acceptor tag).

Assay [2] has as its target T1, human CXCR4. Put plainly: CXCR4/CXCL12 binding, HTRF format, single concentration (Example 23). Also noted: host or cells: HEK293 (Tag-lite CXCR4 cells, frozen aliquots, transient expression). As to conditions: 15 nM CXCR4R fluorescent probe, 3 hours, HEK293 Tag-lite CXCR4 cells. Here is the method:
Peptides were initially prepared as 1 mM stock in H2O and tested at a final concentration of 400 nM. Following the manufacture's protocol, a frozen aliquot of Tag-lite CXCR4 cells was thawed and immediately seeded onto 384-well plates in TLB. Immediately following the addition of cells, 400 nM peptide (final concentration) in TLB was added to the appropriate well. Then 15 nM (final concentration; EC80) of CXCR4R fluorescent probe was added to each well to initiate the HTRF assay. The plates were covered in aluminum foil and left at room temperature for 3 hours. Following the 3 hour incubation period, the plates were removed from the incubator and fluorescence measured using a Cytation 1 plate reader using a HTRF filter cube ([…]; BioTek; Winooski, Vt.). According manufacture's instruction data reduction was performed by calculating the ratio of 665 nm signal (TRF of 665 nm excitation by 620 emission; amount of CXCR4R fluorescent probe bound to terbium labeled CXCR receptor)/620 nm signal (620 excitation by 330 nm light source; normalization factor for amount of terbium labeled CXCR4 receptor in well)×10,000.

Structures are written as SMILES. Square brackets hold non-standard residues; d marks the D form. Peptide text beside a SMILES is read from it.

We go through 11 compounds from US20220395553A1, “CXCR4 ANTAGONIST PEPTIDES” (COHBAR, INC., priority 2019, published 2022).

T1 sequence (P61073 whole entry): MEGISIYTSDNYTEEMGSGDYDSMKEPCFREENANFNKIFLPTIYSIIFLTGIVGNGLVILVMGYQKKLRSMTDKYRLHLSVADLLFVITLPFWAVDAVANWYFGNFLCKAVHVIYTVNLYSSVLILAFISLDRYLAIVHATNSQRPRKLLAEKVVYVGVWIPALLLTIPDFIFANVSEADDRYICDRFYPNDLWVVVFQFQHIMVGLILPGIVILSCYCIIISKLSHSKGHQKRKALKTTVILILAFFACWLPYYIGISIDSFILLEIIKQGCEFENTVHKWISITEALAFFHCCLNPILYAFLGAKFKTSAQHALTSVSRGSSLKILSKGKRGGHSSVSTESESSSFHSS

The term IC50 denotes the concentration at which inhibition is half-maximal. `CC(C)C[C@H](NC(=O)[C@H](CO)NC(=O)[C@H](CO)NC(=O)[C@H](CCCNC(=N)N)NC(=O)[C@@H](C)NC(=O)[C@H](CO)NC(=O)[C@H](Cc1c[nH]cn1)NC(=O)[C@H](Cc1c[nH]cn1)NC(=O)[C@H](Cc1ccc(O)cc1)NC(=O)[C@H](CCCNC(=N)N)NC(=O)[C@H](CCCNC(=N)N)NC(=O)[C@@H](N)CC(C)C)C(=O)N[C@@H](CCCNC(=N)N)C(=O)N1CCC[C@H]1C(=O)N[C@@H](Cc1ccc(O)cc1)C(=O)N[C@H](C(=O)N[C@@H](CCCCN)C(=O)O)[C@@H](C)O` [compound 6] (H-LRRYHHS[dA]RSSLRPYTK-OH; N-terminus and C-terminus assumed) came in with a half-maximal inhibitory concentration (IC50) against human CXCR4 [1] of 8 nM. In addition, the “Percent Inhibition of CXCR4/CXCL12 Binding (400 nM peptide)” value at human CXCR4 [2] was −10%.
Take `CC(C)C[C@H](NC(=O)[C@H](CO)NC(=O)[C@H](CO)NC(=O)[C@H](CCCNC(=N)N)NC(=O)[C@@H](NC(=O)[C@H](CO)NC(=O)[C@H](Cc1c[nH]cn1)NC(=O)[C@H](Cc1c[nH]cn1)NC(=O)[C@H](Cc1ccc(O)cc1)NC(=O)[C@@H](N)CCCNC(=N)N)C(C)C)C(=O)N[C@@H](CCCNC(=N)N)C(=O)N1CCC[C@H]1C(=O)N[C@@H](Cc1ccc(O)cc1)C(=O)N[C@H](C(=O)N[C@@H](CCCCN)C(=O)O)[C@@H](C)O` [compound 11] (H-RYHHSVRSSLRPYTK-OH; N-terminus and C-terminus assumed): at human CXCR4 [1], the 50% inhibitory concentration (IC50) is 175 nM. Moreover, the “Percent Inhibition of CXCR4/CXCL12 Binding (400 nM peptide)” value at human CXCR4 [2] was −9%.
In the case of `CC(C)C[C@H](NC(=O)[C@H](CO)NC(=O)[C@H](CO)NC(=O)[C@H](CCCNC(=N)N)NC(=O)[C@@H](NC(=O)[C@H](CO)NC(=O)[C@H](Cc1c[nH]cn1)NC(=O)[C@H](Cc1c[nH]cn1)NC(=O)[C@H](Cc1ccc(O)cc1)NC(=O)[C@H](CCCNC(=N)N)NC(=O)[C@H](CCC(=O)O)NC(=O)[C@@H](N)CC(C)C)C(C)C)C(=O)O` [compound 22] (H-LERYHHSVRSSL-OH; N-terminus and C-terminus assumed), the half-maximal inhibitory concentration (IC50) at human CXCR4 [1] was 17 nM. In addition, the “Percent Inhibition of CXCR4/CXCL12 Binding (400 nM peptide)” value at human CXCR4 [2] worked out at 14%.
The corresponding values for `CC(C)C[C@H](NC(=O)[C@H](CO)NC(=O)[C@H](CO)NC(=O)[C@H](CCCNC(=N)N)NC(=O)[C@@H](NC(=O)[C@H](CO)NC(=O)[C@H](Cc1c[nH]cn1)NC(=O)[C@H](Cc1c[nH]cn1)NC(=O)[C@H](Cc1ccc(O)cc1)NC(=O)[C@H](CCCNC(=N)N)NC(=O)[C@H](CCCNC(=N)N)NC(=O)[C@@H](N)CC(C)C)C(C)C)C(=O)O` [compound 28] (H-LRRYHHSVRSSL-OH; N-terminus and C-terminus assumed) are 4 nM and 12%.
The corresponding values for `CC(C)C[C@H](NC(=O)[C@H](CO)NC(=O)[C@H](CO)NC(=O)[C@H](CCCNC(=N)N)NC(=O)[C@@H](NC(=O)[C@H](CO)NC(=O)[C@H](Cc1c[nH]cn1)NC(=O)[C@H](CC(N)=O)NC(=O)[C@H](Cc1ccc(O)cc1)NC(=O)[C@H](CCCNC(=N)N)NC(=O)[C@H](CCCNC(=N)N)NC(=O)[C@@H](N)CC(C)C)C(C)C)C(=O)N[C@@H](CCCNC(=N)N)C(=O)N1CCC[C@H]1C(=O)N[C@@H](Cc1ccc(O)cc1)C(=O)N[C@H](C(=O)N[C@@H](CCCCN)C(=O)O)[C@@H](C)O` [compound 41] (H-LRRYNHSVRSSLRPYTK-OH; N-terminus and C-terminus assumed) are 4 nM and −2%.
The corresponding values for `CC(C)C[C@H](NC(=O)[C@H](CO)NC(=O)[C@H](CO)NC(=O)[C@H](CCCNC(=N)N)NC(=O)[C@@H](NC(=O)[C@H](CO)NC(=O)[C@H](CC(N)=O)NC(=O)[C@H](Cc1c[nH]cn1)NC(=O)[C@H](Cc1ccc(O)cc1)NC(=O)[C@H](CCCNC(=N)N)NC(=O)[C@H](CCC(=O)O)NC(=O)[C@@H](N)CC(C)C)C(C)C)C(=O)N[C@@H](CCCNC(=N)N)C(=O)N1CCC[C@H]1C(=O)N[C@@H](Cc1ccc(O)cc1)C(=O)N[C@H](C(=O)N[C@@H](CCCCN)C(=O)O)[C@@H](C)O` [compound 45] (H-LERYHNSVRSSLRPYTK-OH; N-terminus and C-terminus assumed) are 121 nM and 1%.
`CC(C)C[C@H](NC(=O)[C@H](CO)NC(=O)[C@H](CO)NC(=O)[C@H](CCCNC(=N)N)NC(=O)[C@@H](NC(=O)[C@H](CO)NC(=O)[C@H](Cc1c[nH]cn1)NC(=O)[C@H](CCC(N)=O)NC(=O)[C@H](Cc1ccc(O)cc1)NC(=O)[C@H](CCCNC(=N)N)NC(=O)[C@H](CCCNC(=N)N)NC(=O)[C@@H](N)CC(C)C)C(C)C)C(=O)N[C@@H](CCCNC(=N)N)C(=O)N1CCC[C@H]1C(=O)N[C@@H](Cc1ccc(O)cc1)C(=O)N[C@H](C(=O)N[C@@H](CCCCN)C(=O)O)[C@@H](C)O` [compound 47] (H-LRRYQHSVRSSLRPYTK-OH; N-terminus and C-terminus assumed) displayed an IC50 against human CXCR4 [1] of 11 nM. Moreover, the “Percent Inhibition of CXCR4/CXCL12 Binding (400 nM peptide)” value on human CXCR4 [2] amounted to 5%.
At human CXCR4 [1], `CC(C)C[C@H](NC(=O)[C@H](CO)NC(=O)[C@H](CO)NC(=O)[C@H](CCCNC(=N)N)NC(=O)[C@@H](NC(=O)[C@H](CO)NC(=O)[C@H](CCC(N)=O)NC(=O)[C@H](Cc1c[nH]cn1)NC(=O)[C@H](Cc1ccc(O)cc1)NC(=O)[C@H](CCCNC(=N)N)NC(=O)[C@H](CCCNC(=N)N)NC(=O)[C@@H](N)CC(C)C)C(C)C)C(=O)N[C@@H](CCCNC(=N)N)C(=O)N1CCC[C@H]1C(=O)N[C@@H](Cc1ccc(O)cc1)C(=O)N[C@H](C(=O)N[C@@H](CCCCN)C(=O)O)[C@@H](C)O` [compound 50] (H-LRRYHQSVRSSLRPYTK-OH; N-terminus and C-terminus assumed) had a concentration for half-maximal inhibition (IC50) of 121 nM. On human CXCR4 [2], the “Percent Inhibition of CXCR4/CXCL12 Binding (400 nM peptide)” value is listed as −5%.
For `CC(C)C[C@H](NC(=O)[C@H](CO)NC(=O)[C@H](CO)NC(=O)[C@H](CCCNC(=N)N)NC(=O)[C@@H](C)NC(=O)[C@H](CO)NC(=O)[C@H](CCC(N)=O)NC(=O)[C@H](Cc1c[nH]cn1)NC(=O)[C@H](Cc1ccc(O)cc1)NC(=O)[C@H](CCCNC(=N)N)NC(=O)[C@H](CCC(=O)O)NC(=O)[C@@H](N)CC(C)C)C(=O)N[C@@H](CCCNC(=N)N)C(=O)N1CCC[C@H]1C(=O)N[C@@H](Cc1ccc(O)cc1)C(=O)N[C@H](C(=O)N[C@@H](CCCCN)C(=O)O)[C@@H](C)O` [compound 52] (H-LERYHQS[dA]RSSLRPYTK-OH; N-terminus and C-terminus assumed) the same measures were 121 nM and −2%.
In turn, `CC(C)C[C@H](NC(=O)[C@H](CO)NC(=O)[C@H](CO)NC(=O)[C@H](CCCNC(=N)N)NC(=O)[C@@H](NC(=O)[C@H](CO)NC(=O)[C@H](Cc1c[nH]cn1)NC(=O)[C@H](Cc1c[nH]cn1)NC(=O)[C@H](Cc1ccc(O)cc1)NC(=O)[C@H](CCCNC(=N)N)NC(=O)[C@H](CCCNC(=N)N)NC(=O)[C@@H](N)CC(C)C)C(C)C)C(=O)N[C@@H](CCC(=O)O)C(=O)N1CCC[C@H]1C(=O)N[C@@H](Cc1ccc(O)cc1)C(=O)N[C@H](C(=O)N[C@@H](CCCCN)C(=O)O)[C@@H](C)O` [compound 63] (H-LRRYHHSVRSSLEPYTK-OH; N-terminus and C-terminus assumed) had a half-maximal inhibitory concentration (IC50) on human CXCR4 [1] of 14 nM. The “Percent Inhibition of CXCR4/CXCL12 Binding (400 nM peptide)” value at human CXCR4 [2] is 9%.
`CC(C)C[C@H](NC(=O)[C@H](CO)NC(=O)[C@H](CO)NC(=O)[C@H](CCC(=O)O)NC(=O)[C@@H](C)NC(=O)[C@H](CO)NC(=O)[C@H](Cc1c[nH]cn1)NC(=O)[C@H](Cc1c[nH]cn1)NC(=O)[C@H](Cc1ccc(O)cc1)NC(=O)[C@H](CCCNC(=N)N)NC(=O)[C@H](CCCNC(=N)N)NC(=O)[C@@H](N)CC(C)C)C(=O)N[C@@H](CCCNC(=N)N)C(=O)N1CCC[C@H]1C(=O)N[C@@H](Cc1ccc(O)cc1)C(=O)N[C@H](C(=O)N[C@@H](CCCCN)C(=O)O)[C@@H](C)O` [compound 64] (H-LRRYHHS[dA]ESSLRPYTK-OH; N-terminus and C-terminus assumed) yielded a 50% inhibitory concentration (IC50) at human CXCR4 [1] of 14 nM. In addition, the “Percent Inhibition of CXCR4/CXCL12 Binding (400 nM peptide)” value at human CXCR4 [2] is recorded as −6%.
